In publication PMC4449006, “Targeting KRAS Oncogene in Colon Cancer Cells with 7-Carboxylate Indolo[3,2-b]quinoline Tri-Alkylamine Derivatives” (PLoS ONE, 2015):

Experiments:
KRAS mRNA = KRAS mRNA steady-state levels by Taqman Real-time RT-PCR; conditions: HCT116, 72 h, equitoxic concentration
CCD18co cells = assay: MTS short-term cytotoxicity assay (72 h), CCD18co; type: cell-based; conditions: Homo sapiens, CCD-18Co, read-out: CCD18co IC50
Protocol: (§1) The short-term effect of compounds at 72 h on cell growth was studied using colorectal carcinoma cell lines with different KRAS and TP53 genotypes: human colorectal carcinoma HCT116 (mut Kras, wild-type (wt) p53), and human metastatic colorectal adenocarcinoma SW620 (mut Kras, mut p53). In parallel, we also used the immortalized human embryonic kidney cell line HEK293T (wt Kras, wt p53) and normal human colon fibroblast cells CCD18co (wt Kras, wt p53).
(§2) SW620 human colorectal adenocarcinoma cells (European Collection of Cell Cultures, ECACC, Porton Down, Wiltshire, UK), HEK293T human embryonic kidney cells (ATCC, LGC Standards, UK) HCT116 human colon carcinoma cells (ECACC), HCT116 p53(+/+) and p53(−/−) isogenic human colon cancer cells (GRCF Cell Center and Biorepository, the Johns Hopkins University, School of Medicine, Baltimore, MD, USA), were grown in Dulbecco’s modified Eagle’s medium (DMEM) supplemented with 10% fetal bovine serum, and 1% antibiotic/antimycotic (Invitrogen, Grand Island, NY, USA), CCD18co human colon fibroblasts (ATCC, CRL-1459) were grown in Minimum Essential Medium (MEM) supplemented with 10% fetal bovine serum, 1% antibiotic/antimycotic, 2 mM GlutaMAX, 0,1 mM Non-essential amino acids (NEAA) (Invitrogen) and […] Recombinant Human TNF-α (Peprotech, USA) and maintained at 37°C in a humidified atmosphere of 5% CO2.
(§3) Cell viability was evaluated by the tetrazolium dye (MTS) Short-Term Cytotoxicity Assay. […] Following 72 h of compound exposure, cell viability was evaluated using the CellTiter 96 AQueous Non-Radioactive Cell Proliferation Assay (Promega, Madison, WI, USA), using 3-(4,5-dimethylthiazol-2-yl)-5-(3-carboxymethoxyphenyl)-2-(4-sulfophenyl)-2H-tetrazolium, inner salt (MTS) as previously described [35]. Cell viability data were expressed as mean ±SD from at least three independent experiments. IC50 and IC65 values were determined using GaphPad Prism v.5.00 (GraphPad Software). In selected experiments, cell viability was also assessed by trypan blue exclusion assay, and general cell death by LDH activity from cell culture supernatants.

HEK293T cells = assay: MTS short-term cytotoxicity assay (72 h), HEK293T; type: cell-based, human
Protocol: as §1, §2, §3

KRAS protein = KRAS protein steady-state expression by immunoblot; conditions: HCT116, 72 h, equitoxic (IC50) concentration
KRAS21 G-quadruplex DNA = assay: FRET melting assay, KRAS G-quadruplex DNA; type: binding; conditions: 1 μM compound; standard deviation < 0.2°C
Protocol: (§4) The capacity of compounds 1a-d, 2a-d and the standard G4 ligand TMPyP4 (Fig 1) to bind and stabilize KRAS [26] and HSP90A [27] G4 DNA structures as well as duplex DNA (T-loop) was evaluated by a Fluorescence Resonance Energy Transfer (FRET) melting assay. […] It was observed that the basicity of side chains correlates positively with thermal G4 stabilization of all DNA sequences up to an optimal pKa ~ 8.0–9.0 (Fig 2). Heterocyclic amines at the end of alkyl side chain (1b and 2b) appear to improve binding to G4s and complex stabilization compared to the di-ethylamine group (1a and 2a), which cannot be explained by differences in basicity between terminal groups. […] However, this was not observed for the isomeric pair 1a / 2a.
(§5) All oligonucleotides were purchased from Eurofins MWG Synthesis GmbH, Germany. The labeled oligonucleotides used in the FRET assays had attached the donor fluorophore FAM (6-carboxyfluorescein) and the acceptor fluorophore TAMRA (6-carboxytetramethylrhodamine): KRAS21R (5’-FAM-[…]-TAMRA-3’); HSP90A (5’- [FAM]-[…]-[TAMRA]-3’); T-Loop (5’-FAM-[…]-TAMRA-3’). Each oligonucleotide was initially diluted to a storage solution at 100 μM in nuclease free water (not DEPC-treated), purchased from Ambion Applied Biosystems UK.
(§6) The ability of IQ3A and TMPyP4 to stabilize G-quadruplex and duplex DNA sequences was investigated using a Fluorescence Resonance Energy Transfer (FRET) assay. Stock solution of the oligonucleotides sequences at 20 μM and subsequent dilutions were obtained from storage solutions diluting with K-cacodylate buffer pH = 7.4, containing 60 mM K^+ (10 mM potassium cacodylate, 50 mM KCl). The FRET probe sequences were diluted from stock to the correct concentration (0.4 μM) and then annealed by heating to 95°C for 10 min, followed by cooling to RT. Test compounds were prepared as 1 mM in 10% DMSO and 10% 1mM HCl in HPLC-grade water. The rest of the dilutions were performed using FRET buffer. Annealed DNA (50 μL) and compound solution (50 μL) were distributed across 96-well RT-PCR plates (BioRad; MJ Research, Waltham, MA, USA). Relevant controls were also performed to check for interference with the assay. Fluorescence readings were made on a DNA Engine Opticon (MJ Research) with excitation at 450–495 nm and detection at 515–545 nm, taken at intervals of 0.5°C in the range 30–100°C, with a constant temperature being maintained for 30 s prior to each reading to ensure a stable value. Experiments were performed in triplicate. Final analysis of the data was carried out with GraphPad Prism 5.0 software (GraphPad Software, Inc). The advanced curve-fitting function in GraphPad Prism was used for calculation of ΔT m values and associated standard deviations.

T-Loop duplex DNA = assay: FRET melting assay, duplex DNA; type: binding; conditions: 1 μM compound; standard deviation < 0.2°C
Protocol: as §4, §5, §6

HCT116 cells = assay: MTS short-term cytotoxicity assay (72 h), HCT116; type: cell-based, human
Protocol: as §1, §2, §3

KRAS gene promoter = assay: KRAS promoter activity Dual-Luciferase reporter assay; type: cell-based, human; conditions: HCT116 and SW620 cells, PGL-Ras0.5, 24 h, IC50 concentrations
From the text: To validate that the mechanism of anti-proliferative activity and apoptotic induction by IQ3A compounds involves repression of KRAS gene expression as a result of the stabilization of G4-forming sequences present in the promoter, the effects of compounds on the KRAS gene promoter were directly evaluated by a luciferase reporter assay. For this purpose, we used two different size promoter constructs containing the G4 region of the KRAS gene promoter, cloned into the pGL3 Basic backbone: pGL-Ras0.5, pGL-Ras2.0, and pGL3 Basic empty (Firefly Luciferase negative control/no promoter), co-transfected together with pRL-TK (transfection efficiency normalization) into HEK293T cells, as a G4 negative control.
KRAS promotor luciferase reporters respectively harbor 500 bp and 2000 bp of the human KRAS promotor region, kindly provided by Prof. Kim Nam-Soon. pGL3 Basic empty was used as negative control, and pRL-TK simultaneously for transfection efficiency normalization and as a G4 negative control. […] Finally, 72 h after compound incubation, cells were lysed and firefly and renilla luciferase activities were measured using Dual-Luciferase Reporter Assay System (Promega). […] Twenty-four h later, cells were lysed and renilla luciferase activities were measured and expressed as above. The results are expressed as the mean ± SEM fold-change compared to DMSO exposure, from three independent experiments.

SW620 cells = assay: MTS short-term cytotoxicity assay (72 h), SW620; type: cell-based
Protocol: as §1, §2, §3

[1] = 72 h, MTS, standard errors ≤ 0.1

C[n+]1ccc(-c2c3nc(c(-c4cc[n+](C)cc4)c4ccc([nH]4)c(-c4cc[n+](C)cc4)c4ccc([nH]4)c(-c4cc[n+](C)cc4)c4nc2C=C4)C=C3)cc1 [TMPyP4, reference compound]
reduction of KRAS mRNA steady-state levels (KRAS mRNA): unable to reduce KRAS mRNA steady-state levels
IC50 (CCD18co cells): 38.2 µM
IC50 (HEK293T cells; Homo sapiens, HEK-293T, read-out: HEK293T IC50): 2970 nM
HEK293T IC65 (HEK293T cells; MTS, standard errors ≤ 0.1): 4.11 µM
decrease of KRAS protein steady-state levels (KRAS protein): ~80%
ΔTm (°C) KRAS21 1 μM (KRAS21 G-quadruplex DNA): 25 °C
ΔTm (°C) T-Loop 1 μM (T-Loop duplex DNA): 16 °C
HCT116 IC65 (HCT116 cells; [1]): 14.21 µM
Selective index (SI) = IC50 CCD-18co / IC50 HCT116 (HCT116 cells; CCD18co vs HCT116): 3.08
IC50 (HCT116 cells; Homo sapiens, HCT-116, 72 h, read-out: HCT116 IC50): 12.4 µM
reduction of KRAS promoter activity (KRAS gene promoter): significantly reduce KRAS promoter activity
SW620 IC65 (SW620 cells; [1]): > 20 µM
IC50 (SW620 cells; Homo sapiens, SW-620, 72 h, read-out: SW620 IC50): > 20 µM
